Laboratory results from patent US11566022B2, “3-(5-methoxy-1-oxoisoindolin-2-yl)piperidine-2,6-dione derivatives and uses thereof” (NOVARTIS AG, priority 2019, dated 2023).
Where two headings read alike, the source gives them in different places.

Molecular target: HiBit-WIZ fusion protein (Homo sapiens, UniProt O95785+Q96SW2)
Assay: Quantification of WIZ protein levels in HiBit tag fusion protein assay (WIZ HiBit assay in 293T cells)
Type: cell-based
Design: Dmax: dose or concentration left out as unconfirmed
[1] = HEK-293T, 100 minus Amax; 293T cells; read-out: % degradation of WIZ (100-Amax)
[2] = HEK-293T, DMSO-normalized, curve-fitted percentage of WIZ-HiBit remaining at 25 uM; 293T cells; read-out: WIZ Amax
[3] = WIZ HiBit assay in 293T cells; 10-point, 5-fold dose response, highest concentration 25 μM, about 18 hours; read-out: WIZ AC50
[4] = 100 minus Amax, at 25 uM; 293T cells

Sequence of HiBit-WIZ fusion protein (O95785 whole entry, the tested form may be a part): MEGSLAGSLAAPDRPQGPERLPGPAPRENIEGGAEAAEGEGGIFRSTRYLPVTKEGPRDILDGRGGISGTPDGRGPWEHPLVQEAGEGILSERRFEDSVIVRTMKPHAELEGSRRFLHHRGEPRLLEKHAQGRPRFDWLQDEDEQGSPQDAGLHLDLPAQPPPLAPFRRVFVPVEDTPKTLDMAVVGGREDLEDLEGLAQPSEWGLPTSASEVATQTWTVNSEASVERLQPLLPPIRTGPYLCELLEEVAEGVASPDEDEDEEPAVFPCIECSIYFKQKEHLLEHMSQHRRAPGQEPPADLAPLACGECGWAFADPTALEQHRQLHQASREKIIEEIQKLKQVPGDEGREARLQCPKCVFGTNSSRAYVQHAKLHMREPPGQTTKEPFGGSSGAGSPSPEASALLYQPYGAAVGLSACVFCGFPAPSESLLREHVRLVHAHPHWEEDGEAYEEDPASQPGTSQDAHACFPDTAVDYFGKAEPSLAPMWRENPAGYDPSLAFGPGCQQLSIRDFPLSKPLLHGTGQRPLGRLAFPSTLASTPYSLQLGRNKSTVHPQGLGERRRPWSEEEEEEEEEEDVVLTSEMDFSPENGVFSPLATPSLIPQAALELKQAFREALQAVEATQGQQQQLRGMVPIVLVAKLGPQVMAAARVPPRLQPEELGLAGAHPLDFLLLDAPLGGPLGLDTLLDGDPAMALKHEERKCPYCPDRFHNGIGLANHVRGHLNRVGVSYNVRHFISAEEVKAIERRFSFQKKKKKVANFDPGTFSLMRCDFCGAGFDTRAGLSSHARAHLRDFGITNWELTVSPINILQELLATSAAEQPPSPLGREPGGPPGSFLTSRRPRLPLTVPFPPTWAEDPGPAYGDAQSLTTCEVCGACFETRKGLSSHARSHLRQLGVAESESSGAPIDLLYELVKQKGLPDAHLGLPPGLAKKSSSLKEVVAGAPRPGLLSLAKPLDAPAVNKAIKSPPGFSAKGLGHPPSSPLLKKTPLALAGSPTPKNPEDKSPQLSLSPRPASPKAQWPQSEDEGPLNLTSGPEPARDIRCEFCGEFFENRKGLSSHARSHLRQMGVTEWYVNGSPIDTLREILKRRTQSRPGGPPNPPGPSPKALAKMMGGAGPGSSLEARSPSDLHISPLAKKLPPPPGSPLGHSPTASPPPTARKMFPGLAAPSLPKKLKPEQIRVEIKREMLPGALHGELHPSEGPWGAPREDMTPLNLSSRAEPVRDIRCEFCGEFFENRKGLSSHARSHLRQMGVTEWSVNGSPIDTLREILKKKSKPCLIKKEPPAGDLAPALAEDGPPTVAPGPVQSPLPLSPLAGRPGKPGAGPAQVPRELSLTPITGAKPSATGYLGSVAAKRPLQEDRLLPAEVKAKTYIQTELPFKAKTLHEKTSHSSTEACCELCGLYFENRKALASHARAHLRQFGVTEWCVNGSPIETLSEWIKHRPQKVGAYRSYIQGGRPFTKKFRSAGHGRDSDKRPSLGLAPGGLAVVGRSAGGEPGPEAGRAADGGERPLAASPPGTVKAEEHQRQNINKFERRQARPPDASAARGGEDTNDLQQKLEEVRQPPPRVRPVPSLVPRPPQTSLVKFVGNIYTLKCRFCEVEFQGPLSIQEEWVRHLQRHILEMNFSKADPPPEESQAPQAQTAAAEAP
Sequence of HiBit-WIZ fusion protein (Q96SW2 whole entry, the tested form may be a part): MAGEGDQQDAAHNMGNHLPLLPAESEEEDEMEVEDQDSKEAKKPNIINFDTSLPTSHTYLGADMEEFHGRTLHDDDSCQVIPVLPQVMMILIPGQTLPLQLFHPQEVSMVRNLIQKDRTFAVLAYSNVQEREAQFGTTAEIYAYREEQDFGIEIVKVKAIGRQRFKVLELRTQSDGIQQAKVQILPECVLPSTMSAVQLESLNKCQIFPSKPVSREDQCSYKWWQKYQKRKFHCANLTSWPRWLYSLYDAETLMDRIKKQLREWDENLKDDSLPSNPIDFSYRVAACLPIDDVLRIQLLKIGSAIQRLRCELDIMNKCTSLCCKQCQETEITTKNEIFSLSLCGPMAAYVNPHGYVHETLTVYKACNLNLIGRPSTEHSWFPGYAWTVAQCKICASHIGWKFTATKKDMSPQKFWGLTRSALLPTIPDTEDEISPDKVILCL
Sequence of HiBit-WIZ fusion protein (Q16531 whole entry partner, the tested form may be a part): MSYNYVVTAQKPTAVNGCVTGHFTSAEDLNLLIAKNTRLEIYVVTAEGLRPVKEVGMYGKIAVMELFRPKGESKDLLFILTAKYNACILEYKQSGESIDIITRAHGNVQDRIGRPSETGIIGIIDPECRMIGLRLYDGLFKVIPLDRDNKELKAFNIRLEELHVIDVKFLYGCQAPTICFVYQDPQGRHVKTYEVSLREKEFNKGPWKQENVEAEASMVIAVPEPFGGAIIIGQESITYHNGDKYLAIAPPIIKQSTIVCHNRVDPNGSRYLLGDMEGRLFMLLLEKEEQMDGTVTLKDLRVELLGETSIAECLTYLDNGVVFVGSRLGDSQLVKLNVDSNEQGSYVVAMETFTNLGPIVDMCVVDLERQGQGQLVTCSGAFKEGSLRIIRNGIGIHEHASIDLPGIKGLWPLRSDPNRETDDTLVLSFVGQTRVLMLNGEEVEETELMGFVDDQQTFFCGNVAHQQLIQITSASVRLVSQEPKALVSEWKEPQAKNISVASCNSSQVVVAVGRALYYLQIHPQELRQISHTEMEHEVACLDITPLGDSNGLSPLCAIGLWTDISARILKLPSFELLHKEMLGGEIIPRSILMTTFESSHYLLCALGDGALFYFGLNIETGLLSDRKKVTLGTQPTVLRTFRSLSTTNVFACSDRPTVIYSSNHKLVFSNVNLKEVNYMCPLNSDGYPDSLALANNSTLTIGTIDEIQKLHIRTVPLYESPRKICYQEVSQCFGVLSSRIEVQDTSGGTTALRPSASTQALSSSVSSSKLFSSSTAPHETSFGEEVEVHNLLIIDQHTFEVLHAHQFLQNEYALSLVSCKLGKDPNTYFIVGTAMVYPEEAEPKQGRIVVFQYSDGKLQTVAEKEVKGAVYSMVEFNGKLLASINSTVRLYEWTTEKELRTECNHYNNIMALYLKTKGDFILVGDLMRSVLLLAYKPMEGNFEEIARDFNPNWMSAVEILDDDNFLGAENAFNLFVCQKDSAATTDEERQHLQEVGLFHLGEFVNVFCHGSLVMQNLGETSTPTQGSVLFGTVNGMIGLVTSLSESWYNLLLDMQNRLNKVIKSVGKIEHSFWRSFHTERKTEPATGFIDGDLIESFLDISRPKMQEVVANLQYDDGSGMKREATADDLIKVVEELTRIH

Row | SMILES | Dmax [1] | remaining activity at up to 25 µM [2] | DC50 [3] | % degradation of WIZ (100-Amax) [4] | WIZ Amax (DMSO-normalized, curve-fitted percentage of WIZ-HiBit remaining at 25 uM; 293T cells) | Dmax (HEK-293T, read-out: % degradation of WIZ (100-Amax)) | remaining activity (HEK-293T, read-out: WIZ Amax) | DC50 (read-out: WIZ AC50; WIZ HiBit assay in 293T cells; 10-point, 5-fold dose response, highest concentration 25 μM, about 18 hours)
1 | CC(C)(C)OC(=O)N1CCc2cccc(CN3CCCC[C@@H]3COc3ccc4c(c3)CN(C3CCC(=O)NC3=O)C4=O)c21 (stereo partly drawn) [Compound I-110, Tert-butyl 7-(((2R)-2-(((2-(2,6-dioxopiperidin-3-yl)-1-oxoisoindolin-5-yl)oxy)methyl)piperidin-1-yl)methyl)indoline-1-carboxylate] | 99.5% | 0.48% | 8.6 nM | – | – | – | – | –
2 | O=C1CCC(N2Cc3cc(OC[C@H]4CCCCN4Cc4cnc5ccccc5c4)ccc3C2=O)C(=O)N1 (stereo partly drawn) [Compound I-150] | 98.6% | 1.39% | 17 nM | – | – | – | – | –
3 | COc1cc(CN2CCCC[C@@H]2COc2ccc3c(c2)CN(C2CCC(=O)NC2=O)C3=O)ccc1C#N (stereo partly drawn) [Compound I-192] | 62.2% | 37.8% | 25 nM | – | – | – | – | –
4 | O=C1CCC(N2Cc3cc(OC[C@H]4CCCCN4Cc4ccc5ccccc5n4)ccc3C2=O)C(=O)N1 (stereo partly drawn) [Compound I-152] | 97.5% | 2.52% | 48 nM | – | – | – | – | –
5 | O=C1CCC(N2Cc3cc(OC[C@H]4CCCCN4Cc4cccc(N5CCCC5)c4)ccc3C2=O)C(=O)N1 (stereo partly drawn) [Compound I-50do] | 99.9% | 0.1% | 2 nM | – | – | – | – | –
6 | Cc1nnc(-c2ccc(C(=O)N3CCCC[C@H]3COc3ccc4c(c3)CN(C3CCC(=O)NC3=O)C4=O)cc2)o1 (stereo partly drawn) [Compound I-72gy] | 44.1% | 55.9% | > 25000 nM | – | – | – | – | –
7 | O=C1CCC(N2Cc3cc(OC[C@H]4CCCCN4Cc4ccc(C5=CCOCC5)cc4)ccc3C2=O)C(=O)N1 (stereo partly drawn) [Compound I-188, 3-(5-(((R)-1-(4-(3,6-dihydro-2H-pyran-4-yl)benzyl)piperidin-2-yl)methoxy)-1-oxoisoindolin-2-yl)piperidine-2,6-dione] | 86.6% | 13.4% | 0.35 nM | – | – | – | – | –
8 | CCC(Oc1ccc2c(c1)CN(C1CCC(=O)NC1=O)C2=O)[C@@H]1CCCN1 (single isomer, unassigned) [Compound I-44] | – | 89.7% | > 25000 nM | 10.3% | – | – | – | –
9 | O=C1CCC(N2Cc3cc(OC[C@H]4CCCCN4Cc4ccccc4N4CCOCC4)ccc3C2=O)C(=O)N1 (stereo partly drawn) [Compound I-101] | 96% | 3.95% | 72 nM | – | – | – | – | –
10 | CC(Oc1ccccc1Cl)C(=O)N1CCCC[C@H]1COc1ccc2c(c1)CN(C1CCC(=O)NC1=O)C2=O (stereo partly drawn) [Compound I-72ag] | 5.4% | 94.6% | > 25000 nM | – | – | – | – | –
11 | CCN1C2CCC(C2)C1COc1ccc2c(c1)CN(C1CCC(=O)NC1=O)C2=O (single isomer, unassigned) [I-255 (Isomer 3), 3-(5-((endo-2-ethyl-2-azabicyclo[2.2.1]heptan-3-yl)methoxy)-1-oxoisoindolin-2-yl)piperidine-2,6-dione] | – | – | 360 nM | 26.5% | 73.5% | – | – | –
12 | O=C1CCC(N2Cc3cc(OC[C@@H]4CCCCN4C(=O)[C@@H]4CCC(=O)N4Cc4ccccc4)ccc3C2=O)C(=O)N1 (stereo partly drawn) [Compound I-72ed] | 4.6% | 95.4% | > 25000 nM | – | – | – | – | –
13 | N#Cc1ccn2cc(CN3CCCC[C@@H]3COc3ccc4c(c3)CN(C3CCC(=O)NC3=O)C4=O)nc2c1 (stereo partly drawn) [Compound I-50dt] | 67% | 33% | 2740 nM | – | – | – | – | –
14 | O=C1CCC(N2Cc3cc(OC[C@@H]4CCCCN4Cc4ccccc4OCC(=O)N4CCCCC4)ccc3C2=O)C(=O)N1 (stereo partly drawn) [Compound I-50am] | 40% | 60% | > 25000 nM | – | – | – | – | –
15 | O=C1CCC(N2Cc3cc(OC[C@H]4CCCCN4Cc4ccc(N5CCN(C6CCOCC6)CC5)cc4)ccc3C2=O)C(=O)N1 (stereo partly drawn) [Compound I-109, 3-(1-oxo-5-(((R)-1-(4-(4-(tetrahydro-2H-pyran-4-yl)piperazin-1-yl)benzyl)piperidin-2-yl)methoxy)isoindolin-2-yl)piperidine-2,6-dione] | 70.1% | 29.9% | 1500 nM | – | – | – | – | –
16 | N#CC1(c2cc(C(=O)N3CCCC[C@H]3COc3ccc4c(c3)CN(C3CCC(=O)NC3=O)C4=O)ccn2)CC1 (stereo partly drawn) [Compound I-72y] | 2.9% | 97.1% | > 25000 nM | – | – | – | – | –
17 | CC(C)(C)OC(=O)N1CCN(c2ccc(CN3CCCC[C@@H]3COc3ccc4c(c3)CN(C3CCC(=O)NC3=O)C4=O)cn2)CC1 (stereo partly drawn) [Compound I-189, Tert-butyl 4-(5-(((2R)-2-(((2-(2,6-dioxopiperidin-3-yl)-1-oxoisoindolin-5-yl)oxy)methyl)piperidin-1-yl)methyl)pyridin-2-yl)piperazine-1-carboxylate] | 73.2% | 26.8% | 4.3 nM | – | – | – | – | –
18 | O=C1CCC(N2Cc3cc(OC[C@@H]4CCCCN4C(=O)c4cnnn4-c4ccccc4)ccc3C2=O)C(=O)N1 (stereo partly drawn) [Compound I-72c] | 20.6% | 79.4% | > 25000 nM | – | – | – | – | –
19 | CC(C)c1cc(C(=O)N2CCCC[C@H]2COc2ccc3c(c2)CN(C2CCC(=O)NC2=O)C3=O)n(C)n1 (stereo partly drawn) [Compound I-72gd] | 80.1% | 19.9% | 919 nM | – | – | – | – | –

Row | SMILES | Dmax [1] | remaining activity at up to 25 µM [2] | DC50 [3] | % degradation of WIZ (100-Amax) [4] | WIZ Amax (DMSO-normalized, curve-fitted percentage of WIZ-HiBit remaining at 25 uM; 293T cells) | Dmax (HEK-293T, read-out: % degradation of WIZ (100-Amax)) | remaining activity (HEK-293T, read-out: WIZ Amax) | DC50 (read-out: WIZ AC50; WIZ HiBit assay in 293T cells; 10-point, 5-fold dose response, highest concentration 25 μM, about 18 hours)
20 | O=C1CCC(N2Cc3cc(OC[C@H]4CCCCN4Cc4ccc5[nH]cnc5c4)ccc3C2=O)C(=O)N1 (stereo partly drawn) [Compound I-193] | 55.7% | 44.3% | 490 nM | – | – | – | – | –
21 | O=C1CCC(N2Cc3cc(OC[C@H]4CCCCN4Cc4cnn(C5CCCCC5)c4)ccc3C2=O)C(=O)N1 (stereo partly drawn) [Compound I-50ec] | 100% | 0% | 17 nM | – | – | – | – | –
22 | CN1CCCC1C(=O)N1CCCC[C@@H]1COc1ccc2c(c1)CN(C1CCC(=O)NC1=O)C2=O (stereo partly drawn) [Compound I-72dd] | 19.5% | 80.5% | > 25000 nM | – | – | – | – | –
23 | COc1cc2[nH]nc(CN3CCCC[C@@H]3COc3ccc4c(c3)CN(C3CCC(=O)NC3=O)C4=O)c2cc1OCc1ccccc1 (stereo partly drawn) [Compound I-50ev] | 98% | 2% | 51 nM | – | – | – | – | –
24 | O=C1CCC(N2Cc3cc(OC[C@@H]4CCCCN4C(=O)Cc4cscn4)ccc3C2=O)C(=O)N1 (stereo partly drawn) [Compound I-72m] | 8.4% | 91.6% | > 25000 nM | – | – | – | – | –
25 | O=C1CCC(N2Cc3cc(OC[C@@H]4CCCCN4C(=O)c4ccnnc4)ccc3C2=O)C(=O)N1 (stereo partly drawn) [Compound I-72kc] | 9.4% | 90.6% | > 25000 nM | – | – | – | – | –
26 | O=C1CCC(N2Cc3cc(OC[C@H]4CCCCN4Cc4ccc(N5CCOCC5)nc4)ccc3C2=O)C(=O)N1 (stereo partly drawn) [Compound I-186, 3-(5-(((R)-1-((6-morpholinopyridin-3-yl)methyl)piperidin-2-yl)methoxy)-1-oxoisoindolin-2-yl)piperidine-2,6-dione] | 80.8% | 19.1% | 4.3 nM | – | – | – | – | –
27 | COc1cc(C(=O)N2CCCC[C@H]2COc2ccc3c(c2)CN(C2CCC(=O)NC2=O)C3=O)c(F)cn1 (stereo partly drawn) [Compound I-72gn] | 26.4% | 73.6% | > 25000 nM | – | – | – | – | –
28 | O=C1CCC(N2Cc3cc(OC[C@@H]4CCCCN4C(=O)c4ccc(Cl)c(I)c4)ccc3C2=O)C(=O)N1 (stereo partly drawn) [Compound I-72ad] | 52.8% | 47.2% | 17400 nM | – | – | – | – | –
29 | O=C1CCC(N2Cc3cc(OC[C@@H]4CCCCN4Cc4ccc(-n5nccn5)cc4)ccc3C2=O)C(=O)N1 (stereo partly drawn) [Compound I-50ai] | 77.8% | 22.2% | 591 nM | – | – | – | – | –
30 | Cn1cncc1CN1CCCC[C@@H]1COc1ccc2c(c1)CN(C1CCC(=O)NC1=O)C2=O (stereo partly drawn) [Compound I-50df] | 55.9% | 44.1% | 11100 nM | – | – | – | – | –
31 | NS(=O)(=O)c1ccc(CN2CCCC[C@@H]2COc2ccc3c(c2)CN(C2CCC(=O)NC2=O)C3=O)cc1 (stereo partly drawn) [Compound I-50ef] | – | – | – | – | – | 85.2% | 14.8% | 1460 nM
32 | O=C1CCC(N2Cc3cc(OC[C@H]4CCCCN4Cc4cnn(Cc5ccccc5)c4)ccc3C2=O)C(=O)N1 (stereo partly drawn) [Compound I-50bv] | 99.9% | 0.1% | 1 nM | – | – | – | – | –
33 | Cc1nc(-c2cccc(CN3CCCC[C@H]3COc3ccc4c(c3)CN(C3CCC(=O)NC3=O)C4=O)c2)no1 (stereo partly drawn) [Compound I-50bb] | 56.8% | 43.2% | 18300 nM | – | – | – | – | –
34 | O=C1CCC(N2Cc3cc(OC[C@H]4CCCCN4Cc4ccc(O)cc4)ccc3C2=O)C(=O)N1 (stereo partly drawn) [Compound I-148] | 94.5% | 5.51% | 20 nM | – | – | – | – | –
35 | O=C1CCC(N2Cc3cc(OC[C@H]4CCCCN4Cc4ccccc4N4CCN(CC5CCOCC5)CC4)ccc3C2=O)C(=O)N1 (stereo partly drawn) [Compound I-108, 3-(1-oxo-5-(((R)-1-(2-(4-((tetrahydro-2H-pyran-4-yl)methyl)piperazin-1-yl)benzyl)piperidin-2-yl)methoxy)isoindolin-2-yl)piperidine-2,6-dione] | 98.1% | 1.93% | 25 nM | – | – | – | – | –
36 | Cc1csc(CN2CCCC[C@@H]2COc2ccc3c(c2)CN(C2CCC(=O)NC2=O)C3=O)n1 (stereo partly drawn) [Compound I-151] | 65.1% | 34.9% | 3430 nM | – | – | – | – | –
37 | Cc1nccn1-c1ccc(CN2CCCC[C@H]2COc2ccc3c(c2)CN(C2CCC(=O)NC2=O)C3=O)cc1 (stereo partly drawn) [Compound I-50u] | 70.1% | 29.9% | 2640 nM | – | – | – | – | –
38 | CN1CCOc2cc(C(=O)N3CCCC[C@H]3COc3ccc4c(c3)CN(C3CCC(=O)NC3=O)C4=O)cnc21 (stereo partly drawn) [Compound I-72ij] | 68.7% | 31.3% | 2760 nM | – | – | – | – | –
